Publication PMC5602538, “Assessment of the Drug Interaction Potential of Unconjugated and GalNAc3-Conjugated 2′-MOE-ASOs” (Molecular Therapy. Nucleic Acids, 2017)

Tests used:
P-gp = test system: T1, P-gp; test: P-gp inhibition study in MDCK-MDR1 cells; assay type: in vitro ADME; settings: human, probe [3H]-quinidine, 100 nM
T1 construct: host or cells: MDCK-MDR1 (MDCK cells stably transfected with MDR1)
Protocol: MDCK-MDR1 cells and MDCK-II cells transfected with BCRP were washed with HBSS at 37°C. Wells of the culture plate served as the apical compartment, and 150 μL of HBSS solutions was added to the apical wells. These solutions also contain one of the following: vehicle (for probe substrate controls), 100 μM test article (for test article inhibition experiments), 1 μM Ko143 (for BCRP inhibition), or 3 μM elacridar (for P-gp inhibition). A 96-well receiver tray was prepared with each well containing 300 μL of buffer solution corresponding to the apical wells. Receiver tray wells served as the basal compartment. The plate and receiver tray were assembled and incubated at 37°C for 30 min. The solution was then aspirated from the apical compartment and the 96-well plate was removed from the receiver tray. […] These samples were counted on a 1450 Microbeta (PerkinElmer). For samples containing test articles, samples were quantitated using LC-MS.
Net basal (B) to apical (A) flux (B→A) of the substrate transport by BCRP and P-gp was calculated by subtracting (A→B) flux from (B→A) flux as: netB→Aflux(pmol/min/cm^2)=(B→A)flux-(A→B)flux.
Percent inhibition was calculated by dividing the net flux (B→A) in the presence of the test article or the reference inhibitor by the net flux (B→A) in the absence of the inhibitor as: %inhibition=100−(100×netfluxwithinhibitor/(meannetflux)withoutinhibitor).

CYP2B6 = target: T2, CYP2B6 (Homo sapiens, UniProt P20813); test: biochemical
T2 sequence (P20813 1-491): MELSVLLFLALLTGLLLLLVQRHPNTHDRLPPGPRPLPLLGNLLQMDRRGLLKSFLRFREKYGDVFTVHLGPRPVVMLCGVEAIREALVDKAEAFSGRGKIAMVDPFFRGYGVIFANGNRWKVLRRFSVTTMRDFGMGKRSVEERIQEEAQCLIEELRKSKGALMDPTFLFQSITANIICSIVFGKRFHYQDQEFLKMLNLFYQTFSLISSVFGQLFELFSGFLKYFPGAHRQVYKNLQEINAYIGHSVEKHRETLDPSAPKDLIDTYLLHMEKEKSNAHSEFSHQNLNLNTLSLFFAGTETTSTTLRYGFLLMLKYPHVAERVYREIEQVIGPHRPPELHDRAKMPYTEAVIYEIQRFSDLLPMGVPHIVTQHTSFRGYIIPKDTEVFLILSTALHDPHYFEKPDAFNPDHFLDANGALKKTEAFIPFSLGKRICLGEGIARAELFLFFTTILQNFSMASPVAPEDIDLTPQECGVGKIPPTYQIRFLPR
Protocol: (§1) Preincubations were performed in 50 μL of Williams’ Medium E with 2 mM salicylamide. The salicylamide was included to reduce possible phase II conjugation to the precursor phase I metabolites. […] Human hepatocytes (pooled from 5 donors) were thawed and prepared according to the vendor’s protocol. […] Incubations were carried out at 37°C with 5% CO2. The incubation time was 45 min for phenacetin, diclofenac, dextromethorphan, midazolam, bupropion, chlorzoxazone, and testosterone and 90 min for paclitaxel and (S)-mephenytoin. The reactions were stopped by adding 200 μL of ice-cold acetonitrile (can) with tolbutamide (100 ng/mL) as the internal standard to 100 μL of hepatocyte suspension (1:2, v/v). The 96-well plate was then vortexed at 1,700 rpm for 3 min and centrifuged at 3,500 rpm for 10 min at 20°C. The supernatants were analyzed using liquid chromatography-tandem MS (LC-MS/MS).

CYP2E1 = CYP2E1 (Homo sapiens, UniProt P05181); test: CYP2E1 inhibition in cryopreserved human hepatocyte suspensions (chlorzoxazone probe)
Sequence of CYP2E1 (P05181 whole entry): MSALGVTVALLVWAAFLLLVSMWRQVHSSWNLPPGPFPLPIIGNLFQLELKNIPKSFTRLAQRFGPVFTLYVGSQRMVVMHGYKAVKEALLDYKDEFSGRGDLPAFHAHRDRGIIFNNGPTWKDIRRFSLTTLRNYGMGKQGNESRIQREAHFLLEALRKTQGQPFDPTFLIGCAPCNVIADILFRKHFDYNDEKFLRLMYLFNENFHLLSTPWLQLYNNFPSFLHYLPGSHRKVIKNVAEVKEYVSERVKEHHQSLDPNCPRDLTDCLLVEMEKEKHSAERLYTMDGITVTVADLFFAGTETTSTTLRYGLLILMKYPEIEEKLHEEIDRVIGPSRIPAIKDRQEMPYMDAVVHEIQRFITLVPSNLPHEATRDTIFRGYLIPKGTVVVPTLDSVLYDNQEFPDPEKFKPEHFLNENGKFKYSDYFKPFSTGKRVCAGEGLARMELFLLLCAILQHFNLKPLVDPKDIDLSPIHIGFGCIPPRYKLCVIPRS
Protocol: as §1

Q: How did the inhibition at 90 min, 3 μM (P-gp) turn out when COc1cc2c(cc1OC)CN(CCc1ccc(NC(=O)c3cccc4c(=O)c5cccc(OC)c5[nH]c34)cc1)CC2 [elacridar] was run?
A: 90.2 ± 1.42%

Q: Which IC50 (CYP2B6) does the source give for COC(=O)[C@H](c1ccccc1Cl)N1CCc2sccc2C1 [clopidogrel] here?
A: 163 nM

Q: With Cc1ncsc1CCCl [chlormethiazole] as the compound, how does the IC50 (CYP2E1) read?
A: 1.08 nM
